The assay concerns the target PIK3CB;PIK3CG;PIK3CD;PIK3CA (human) (UniProt P48736). The assay can be described thus: Enzyme Assay.

Usually IC50 stands for the concentration at which inhibition is half-maximal. `O=C(c1nn([C@H]2CCCN(CC3CCOCC3)C2)c2c1CS(=O)(=O)c1ncccc1-2)N1CCOCC1` returned an IC50 of 13 nM.

The molecule `O=C(c1nn(C2CCCN(CCn3cccn3)C2)c2c1CS(=O)(=O)c1ccccc1-2)N1CCOCC1` (stereo not drawn) registered an IC50 of 169 nM.

For the molecule `O=C(c1nn([C@@H]2CCCN(CCC3CCOCC3)C2)c2c1CS(=O)(=O)c1ccccc1-2)N1CCOCC1`, the IC50 was 2200 nM. This IC50 is about 13-fold higher than that of the molecule before.

For `COc1ccc2c(c1)S(=O)(=O)Cc1c(C(=O)N3CCOCC3)nn([C@H]3CCCN(CCN4CC(F)(F)C4)C3)c1-2`, the IC50 stood at 15 nM.

`CC(C)(C)OC(=O)N1CCC(Cn2nc(C(=O)N3CCOCC3)c3c2-c2ccccc2S(=O)(=O)C3)CC1` had an IC50 of 495 nM.

Consider `O=C(c1nn(-c2ccccc2)c2c1CS(=O)(=O)c1ccccc1-2)N1CCOCC1`, for which the IC50 was 244 nM.

The molecule `CCn1nc(C(=O)N2CCOCC2)c2c1-c1ccccc1S(=O)(=O)C2` came in with an IC50 of 601 nM.

For `O=C(c1nn([C@H]2CCCN(C3CCCNC3)C2)c2c1CS(=O)(=O)c1ccccc1-2)N1CCOCC1` (stereo partly drawn), the IC50 is 25 nM.

`CC(C)(C)OC(=O)N1CCCC(n2nc(C(=O)N3CCOCC3)c3c2-c2ccccc2S(=O)(=O)C3)C1` (stereo not drawn) yielded a half-inhibitory concentration (IC50) of 1540 nM. This IC50 is about 62-fold higher than that of the molecule before.

The molecule `CC(=O)Nc1cccc2c1S(=O)(=O)Cc1c(C(=O)N3CCOCC3)nn(-c3ccccc3)c1-2` gave an IC50 of 9880 nM.

Regarding `O=C(c1cccc(-n2nc(C(=O)N3CCOCC3)c3c2-c2ccccc2S(=O)(=O)C3)c1)N1CCC(O)CC1`, the IC50 is 371 nM.

`O=C(c1nn(C2CCCN(CCn3ccnc3)C2)c2c1CS(=O)(=O)c1ccccc1-2)N1CCOCC1` (stereo not drawn): the IC50 came to 52 nM.

In turn, `COc1cccc2c1S(=O)(=O)Cc1c(C(=O)N3CCOCC3)nn(-c3ccccc3)c1-2` displayed an IC50 of 459 nM.

With `Nc1ncc(-c2cccc(-n3nc(C(=O)N4CCOCC4)c4c3-c3ccccc3S(=O)(=O)C4)c2)cn1`, the IC50 amounted to 454 nM.

The molecule `COCCCN1CCC(n2nc(C(=O)N3CCOCC3)c3c2-c2ccccc2S(=O)(=O)C3)C1` (stereo not drawn) had a concentration for half-maximal inhibition (IC50) of 923 nM.

`O=C(c1nn(C2CCCN(CCN3CCOCC3)C2)c2c1CS(=O)(=O)c1c(Cl)cccc1-2)N1CCOCC1` (stereo not drawn) displayed an IC50 of 120 nM. This IC50 lies about 7.7-fold lower than the previous one.

The molecule `O=C(c1nn(C2CCN(CCO)CC2)c2c1CS(=O)(=O)c1ccccc1-2)N1CCOCC1` displayed an IC50 of 1760 nM.

Turning to `COc1ccc2c(c1)S(=O)(=O)Cc1c(C(=O)N3CCOCC3)nn(C)c1-2`, the IC50 amounted to 422 nM.

The molecule `O=C(c1nn(C2CCN(C3CCOCC3)C2)c2c1CS(=O)(=O)c1c(F)cccc1-2)N1CCOCC1` (stereo not drawn) had an IC50 of 29 nM. This IC50 is about 15-fold lower than that of the molecule before.

Consider `O=C(c1nn(-c2ccccc2)c2c1CS(=O)(=O)c1ccncc1-2)N1CCOCC1`, for which the IC50 worked out at 3050 nM.

`CS(=O)(=O)NCc1ccc(-n2nc(C(=O)N3CCOCC3)c3c2-c2ccccc2S(=O)(=O)C3)cc1` gave an IC50 of 421 nM. This IC50 lies about 7.2-fold lower than the previous one.

`O=C(c1nn(C2CCCNC2)c2c1CS(=O)(=O)c1ccccc1-2)N1CCOCC1` (stereo not drawn) returned an IC50 of 3010 nM.

`COc1cccc2c1S(=O)(=O)Cc1c(C(=O)N3CCOCC3)nn([C@H]3CCCN(CCN4CC(F)(F)C4)C3)c1-2` had an IC50 of 40 nM. Against the preceding molecule, the IC50 is about 75-fold lower.

Molecule `COCCN(CCOC)CCN1CCC[C@H](n2nc(C(=O)N3CCOCC3)c3c2-c2ccccc2S(=O)(=O)C3)C1` had an IC50 of 113 nM.

`Cc1noc(-c2cccc(-n3nc(C(=O)N4CCOCC4)c4c3-c3ccccc3S(=O)(=O)C4)c2)n1`: the IC50 is 2690 nM. Against the preceding molecule, the IC50 is about 24-fold higher.

Molecule `O=C(c1nn(C2CN(CCC3CCOCC3)C2)c2c1CS(=O)(=O)c1ccccc1-2)N1CCOCC1` yielded an IC50 of 95 nM.

In the case of `O=C(c1nn(-c2ccccc2Cl)c2c1CS(=O)(=O)c1ccccc1-2)N1CCOCC1`, the IC50 amounted to 4020 nM. Against the preceding molecule, the IC50 is about 42-fold higher.

`O=C(c1nn(C2CCOCC2)c2c1CS(=O)(=O)c1sccc1-2)N1CCOCC1` gave an IC50 of 824 nM.

Take `O=C(c1nn(CC2CCCO2)c2c1CS(=O)(=O)c1ccccc1-2)N1CCOCC1` (stereo not drawn): the IC50 is 1560 nM.

For `O=C(c1nn([C@@H]2CCCN(CCF)C2)c2c1CS(=O)(=O)c1ccccc1-2)N1CCOCC1`, the IC50 worked out at 7970 nM.

In turn, `O=C(c1nn(C2CCN(CCC3CCOCC3)C2)c2c1CS(=O)(=O)c1ccccc1-2)N1CCOCC1` (stereo not drawn) yielded an IC50 of 280 nM. Compared with the last molecule, the IC50 is about 28-fold lower.

`COc1ccc2c(c1)S(=O)(=O)Cc1c(C(=O)N3CCOCC3)nn([C@H]3CCCN(C4CCCOC4)C3)c1-2` (stereo partly drawn) yielded an IC50 of 24 nM.

As to `O=C(c1nn(C2CCCN(CCC3CCOCC3)C2)c2c1CS(=O)(=O)c1ccccc1-2)N1CCOCC1` (stereo not drawn), the IC50 was determined as 54 nM.

For `COCCN1CCC(n2nc(C(=O)N3CCOCC3)c3c2-c2ccccc2S(=O)(=O)C3)CC1`, the IC50 came out at 1920 nM.

`O=C(c1nn(-c2ccc(CN3CCCCC3)nc2)c2c1CS(=O)(=O)c1ccccc1-2)N1CCOCC1` came in with an IC50 of 370 nM.

The molecule `O=C(c1nn(C2CCOCC2)c2c1CS(=O)(=O)c1ccccc1-2)N1CCOCC1` yielded an IC50 of 223 nM.

For `O=C(c1nn(C2CCCN(CCC3CCOCC3)C2)c2c1CS(=O)(=O)c1ncccc1-2)N1CCOCC1` (stereo not drawn), the IC50 is 61 nM.

Take `O=C(c1nn(-c2ccccc2)c2c1CS(=O)(=O)c1ncccc1-2)N1CCOCC1`: the IC50 amounted to 530 nM.

As to `CCOc1ccc2c(c1)S(=O)(=O)Cc1c(C(=O)N3CCOCC3)nn(-c3ccc(CN4CCOCC4)cc3)c1-2`, the IC50 came out at 250 nM.

`COCCCC1c2c(C(=O)N3CCOCC3)nn(-c3ccccc3)c2-c2ccccc2S1(=O)=O` (stereo not drawn) showed an IC50 of 5070 nM.

`O=C(c1nn(C2CCCN(CCN3CCOCC3)C2)c2c1CS(=O)(=O)c1ccccc1-2)N1CCOCC1` (stereo not drawn) registered an IC50 of 122 nM.

In turn, `CC1(C)CCCC(n2nc(C(=O)N3CCOCC3)c3c2-c2ccccc2S(=O)(=O)C3)C1` (stereo not drawn) gave an IC50 of 498 nM. Compared with the last molecule, the IC50 is about 4.1-fold higher.

In turn, `O=C(c1nn(-c2ccccc2)c2c1C(CC1CC1)S(=O)(=O)c1ccccc1-2)N1CCOCC1` (stereo not drawn) returned an IC50 of 3900 nM. This IC50 lies about 7.8-fold higher than the previous one.

Turning to `O=C(c1nn(C2CCN(CC3CCOC3)C2)c2c1CS(=O)(=O)c1c(F)cccc1-2)N1CCOCC1` (stereo not drawn), the IC50 came to 57 nM.

`O=C(c1nn([C@@H]2CCN(C3CCOCC3)C2)c2c1CS(=O)(=O)c1c(F)cccc1-2)N1CCOCC1` displayed an IC50 of 2040 nM. This IC50 is about 36-fold higher than that of the molecule before.

As to `CC1CN(C(=O)c2nn(-c3ccccc3)c3c2CS(=O)(=O)c2ccccc2-3)CCO1` (stereo not drawn), the IC50 stood at 2160 nM.

As to `CNCc1ccc(-n2nc(C(=O)N3CCOCC3)c3c2-c2ccccc2S(=O)(=O)C3)cc1`, the IC50 was found to be 226 nM.

`CC(=O)Nc1ccc2c(c1)-c1c(c(C(=O)N3CCOCC3)nn1-c1ccccc1)CS2(=O)=O` gave an IC50 of 876 nM.

`O=C(c1nn(-c2ccccc2)c2c1CS(=O)(=O)c1ccsc1-2)N1CCOCC1` displayed an IC50 of 643 nM.

`O=C(c1nn([C@H]2CCCN(CCN3CCOCC3)C2)c2c1CS(=O)(=O)c1ccccc1-2)N1CCOCC1` returned an IC50 of 16 nM.

Molecule `O=C(c1nn(Cc2ccccn2)c2c1CS(=O)(=O)c1ccccc1-2)N1CCOCC1` displayed an IC50 of 3960 nM.

The molecule `CN(C)CCCn1nc(C(=O)N2CCOCC2)c2c1-c1ccccc1S(=O)(=O)C2` returned an IC50 of 3110 nM.

Take `O=C(c1nn([C@H]2CCCN(CCN3CC[C@H](F)C3)C2)c2c1CS(=O)(=O)c1ccccc1-2)N1CCOCC1`: the IC50 is 14 nM.

Regarding `CC1COCCN1Cc1ccc(-n2nc(C(=O)N3CCOCC3)c3c2-c2ccccc2S(=O)(=O)C3)cc1` (stereo not drawn), the half-inhibitory concentration (IC50) amounted to 180 nM.

As to `CN(C)Cc1noc(-c2cccc(-n3nc(C(=O)N4CCOCC4)c4c3-c3ccccc3S(=O)(=O)C4)c2)n1`, the IC50 was found to be 2980 nM.

Consider `O=C(c1nn([C@H]2CCCN(CCN3CCOCC3)C2)c2c1CS(=O)(=O)c1c(F)cccc1-2)N1CCOCC1`, for which the IC50 was 16 nM. This IC50 lies about 190-fold lower than the previous one.

For the molecule `O=C(c1nn(-c2ccccn2)c2c1CS(=O)(=O)c1ccccc1-2)N1CCOCC1`, the IC50 was 1600 nM.

Regarding `COc1ccc2c(c1)-c1c(c(C(=O)N3CCOCC3)nn1[C@H]1CCCN(CCN3CCOCC3)C1)CS2(=O)=O`, the IC50 was 28 nM. Against the preceding molecule, the IC50 is about 57-fold lower.

`O=C(c1nn([C@H]2CCCNC2)c2c1CS(=O)(=O)c1ccccc1-2)N1CCOCC1` showed an IC50 of 1060 nM.

`O=C(c1nn([C@H]2CCCN(CCN3CCCCC3)C2)c2c1CS(=O)(=O)c1ccccc1-2)N1CCOCC1`: the IC50 was 15 nM. This IC50 lies about 71-fold lower than the previous one.

On to `O=C(NC1CCOCC1)c1cccc(-n2nc(C(=O)N3CCOCC3)c3c2-c2ccccc2S(=O)(=O)C3)c1`, for which the IC50 worked out at 1260 nM.

`O=C(c1nn(-c2ccc3nn(Cc4ccccc4)cc3c2)c2c1CS(=O)(=O)c1ccccc1-2)N1CCOCC1` had an IC50 of 2080 nM.

For the molecule `O=C(c1nn(-c2cccc(-c3ncon3)c2)c2c1CS(=O)(=O)c1ccccc1-2)N1CCOCC1`, the IC50 is 6690 nM.

The molecule `O=C(c1nn(CCN2CCOCC2)c2c1CS(=O)(=O)c1ccccc1-2)N1CCOCC1` returned an IC50 of 795 nM.

`COCCN1CCC[C@H](n2nc(C(=O)N3CCOCC3)c3c2-c2ccccc2S(=O)(=O)C3)C1` returned an IC50 of 40 nM.

In turn, `O=C(c1nn(-c2ccccc2)c2c1CS(=O)(=O)c1cc(C(F)(F)F)ccc1-2)N1CCOCC1` displayed an IC50 of 3060 nM.

`CS(=O)(=O)c1cccc(-n2nc(C(=O)N3CCOCC3)c3c2-c2ccccc2S(=O)(=O)C3)c1` registered an IC50 of 2560 nM.

On to `O=C(c1nn(-c2cccc(-c3nccs3)c2)c2c1CS(=O)(=O)c1ccccc1-2)N1CCOCC1`, for which the IC50 is 4220 nM. This IC50 is about 1.6-fold higher than that of the molecule before.

`O=C(c1nn(C2CCCN(CCO)C2)c2c1CS(=O)(=O)c1ccccc1-2)N1CCOCC1` (stereo not drawn) displayed an IC50 of 815 nM.

In the case of `COc1cccc2c1S(=O)(=O)Cc1c(C(=O)N3CCOCC3)nn([C@H]3CCCN(CCN4CC(F)C4)C3)c1-2`, the IC50 amounted to 62 nM.

`O=C(c1nn(-c2cccc(CN3CCC(F)(F)CC3)c2)c2c1CS(=O)(=O)c1ccccc1-2)N1CCOCC1` had an IC50 of 560 nM.

The molecule `COC(=O)CCN1CCC[C@H](n2nc(C(=O)N3CCOCC3)c3c2-c2ccccc2S(=O)(=O)C3)C1` yielded an IC50 of 48 nM.

The molecule `O=C(c1nn(C2CCCCC2)c2c1CS(=O)(=O)c1ccsc1-2)N1CCOCC1` came in with an IC50 of 212 nM.

Molecule `O=C(c1nn(-c2ccc(CNC3CCOCC3)cc2)c2c1CS(=O)(=O)c1ccccc1-2)N1CCOCC1` showed a half-maximal inhibitory concentration (IC50) of 107 nM. Against the preceding molecule, the IC50 is about 2-fold lower.

Consider `CN1CCC(N2CCC[C@H](n3nc(C(=O)N4CCOCC4)c4c3-c3ccccc3S(=O)(=O)C4)C2)CC1`, for which the IC50 worked out at 28 nM. Compared with the last molecule, the IC50 is about 3.8-fold lower.

`O=C(c1nn(-c2ccc(CN3CCC(F)CC3)cc2)c2c1CS(=O)(=O)c1ccccc1-2)N1CCOCC1` yielded an IC50 of 247 nM.

Molecule `O=C(c1nn(-c2cccc(CN3CCCC3)c2)c2c1CS(=O)(=O)c1ccccc1-2)N1CCOCC1` gave an IC50 of 516 nM.

In turn, `N#Cc1cccc(-n2nc(C(=O)N3CCOCC3)c3c2-c2ccccc2S(=O)(=O)C3)c1` showed an IC50 of 376 nM.
